US20220296595A1, “CDK INHIBITORS” (QILU REGOR THERAPEUTICS INC., priority 2019, published 2022)
Read-outs that look alike come from different tables or passages of the source.

Assays:
CDK2/CyclinE1 = molecular target: T1, CDK2/CyclinE1 (Homo sapiens, UniProt P24941); assay: Assay for inhibition of CDK2/CyclinE1 (Caliper microfluidic kinase assay); format: biochemical; conditions: read-out: CDK2 IC50
T1 construct: purchased SignalChem C29-18G
In short: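 IC50 came from 4-parameter fits of substrate-to-product conversion, separated on a Caliper chip after an EDTA stop. Reactions ran 3 hours at room temperature with 100 μM ATP, 5 μM fluorescent FL-18 peptide and 5 nM enzyme in 100 mM HEPES pH 7.5, 10 mM MgCl2.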

T47D breast cancer cells = assay: Anti-proliferation assay in T47D cell (Cyquant, day 6); format: cell-based, human; conditions: Homo sapiens, T47D, anti-proliferation, T47D cells; read-out: T47D IC50
In short: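 A ten-point, 3-fold compound series (10 μM down to 0.51 nM) was applied to overnight-settled cells in 10% FBS RPMI 1640, and DNA content was read by CyQuant fluorescence 6 days later. An untreated plate read before dosing served as baseline for subtraction before IC50 fitting.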

CDK6/CyclinD3 = molecular target: T2, CDK6/CyclinD3 (Homo sapiens, UniProt Q00534); assay: Assay for inhibition of CDK6/CyclinD3 (Caliper microfluidic kinase assay); format: biochemical
T2 construct: purchased Carna 04-107
In short: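 IC50s came from four-parameter dose-response fits of microfluidic substrate/product separation data. Reactions held 2 nM CDK6/CyclinD3, 300 μM ATP and 1 μM 5-FAM peptide FL-34 in pH 7.5 HEPES/MgCl2 buffer, ran 3 hours at room temperature, then were quenched with EDTA.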

CDK4/CyclinD1 = molecular target: T3, CDK4/CyclinD1 (Homo sapiens, UniProt P11802); assay: Assay for inhibition of CDK4/CyclinD1 (Caliper microfluidic kinase assay); format: biochemical
T3 construct: purchased Thermofisher PR8064A
In short: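 IC50 was obtained by 4-parameter sigmoidal fitting after 1 nM CDK4/CyclinD1, 200 μM ATP and 1 μM FL-34 substrate reacted for 3 h at room temperature (pH 7.5 HEPES, 10 mM MgCl2). After EDTA quench, substrate and product were separated and detected on a Caliper microfluidic chip.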

[1] = system: phosphorylation of Retinoblastoma Protein (pRb Ser807/811 or Ser780) in T47D cells; assay: Inhibition of phosphorylation of retinoblastoma protein (pRb) in T47D cell (ELISA); format: cell-based, human; conditions: Homo sapiens, T47D, read-out: Phospho T47D Ser807 IC50, pRb Ser807 phosphorylation, T47D cells
Description: T47D breast cancer cells from American Type Culture Collection (ATCC, HTB-133) were plated at 40,000 cells/well in 96-well plates, and were incubated in RPMI 1640 medium (Gibco, 31800105) with 10% Fetal Bovine Serum (FBS, Biowest, FB-1058). Cells were then allowed to adhere overnight at 37° C., 5% CO2. The following day, compounds were titrated in a 3-fold dilution scheme, and the highest compound concentration tested was […]. After 24 hours incubation with compounds, cells were lysed in ice-cold lysis buffer containing phosphatase inhibitor cocktail and 1 mM PMSF. Cell lysates (50 μL/well) were then transferred to ELISA plates (pRb Ser807/811 ELISA kit, Cell Signaling, 13152 or pRb Ser780 ELISA kit, Cell Signaling, 13016)). Plates were incubated overnight at 4° C., with constant slow speed shaking. After incubation, plates were washed following manufacturer's recommendations, and then 100 μL reconstituted detection antibody was added to each well and incubated for 1 hour at 37° C. After incubation, plates were washed, and then 100 μL reconstituted HRP-linked secondary antibody was added to each well and incubated for 30 mins at 37° C. After incubation, plates were washed. Then, 100 μL TMB substrate was added to each well and incubated for 10 min at 37° C. or 30 min at 25° C. Finally, 100 μL of STOP solution was added to each well and mixed gently for a few seconds. Plates were read on the Envision plate reader (PerkinElmer, 2104-0010) using the 96-well […] mode. IC50 values were calculated using 4 parameter sigmoidal dose-response model of Xlfit5/GraphPad Prism 5 software.

T2 sequence (Q00534 whole entry): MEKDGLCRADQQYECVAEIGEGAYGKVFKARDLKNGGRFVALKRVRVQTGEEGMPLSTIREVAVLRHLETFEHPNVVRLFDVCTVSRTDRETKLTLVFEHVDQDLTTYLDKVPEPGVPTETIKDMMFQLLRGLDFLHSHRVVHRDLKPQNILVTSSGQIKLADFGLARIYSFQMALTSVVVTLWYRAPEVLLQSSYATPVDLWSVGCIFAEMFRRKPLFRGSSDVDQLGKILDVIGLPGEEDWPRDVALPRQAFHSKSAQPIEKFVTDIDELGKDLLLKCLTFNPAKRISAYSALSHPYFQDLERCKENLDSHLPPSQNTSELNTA
T2 sequence (P30281 whole entry partner): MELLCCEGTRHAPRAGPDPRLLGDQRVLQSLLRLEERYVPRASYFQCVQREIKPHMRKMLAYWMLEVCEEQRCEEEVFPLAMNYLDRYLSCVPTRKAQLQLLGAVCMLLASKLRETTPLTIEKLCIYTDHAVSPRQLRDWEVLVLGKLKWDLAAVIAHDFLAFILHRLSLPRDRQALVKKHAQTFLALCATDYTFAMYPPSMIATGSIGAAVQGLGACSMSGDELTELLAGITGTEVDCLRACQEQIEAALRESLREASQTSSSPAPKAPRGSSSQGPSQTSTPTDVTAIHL
T3 sequence (P11802 whole entry): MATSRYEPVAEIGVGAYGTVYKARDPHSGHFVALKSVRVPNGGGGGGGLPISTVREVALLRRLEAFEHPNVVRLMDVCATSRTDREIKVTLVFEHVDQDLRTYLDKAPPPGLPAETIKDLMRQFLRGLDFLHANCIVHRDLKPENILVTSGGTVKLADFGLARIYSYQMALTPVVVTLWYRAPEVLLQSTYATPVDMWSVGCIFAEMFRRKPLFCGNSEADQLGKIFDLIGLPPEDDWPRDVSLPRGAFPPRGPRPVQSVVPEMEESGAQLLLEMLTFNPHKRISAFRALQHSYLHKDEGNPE
T3 sequence (P24385 whole entry partner): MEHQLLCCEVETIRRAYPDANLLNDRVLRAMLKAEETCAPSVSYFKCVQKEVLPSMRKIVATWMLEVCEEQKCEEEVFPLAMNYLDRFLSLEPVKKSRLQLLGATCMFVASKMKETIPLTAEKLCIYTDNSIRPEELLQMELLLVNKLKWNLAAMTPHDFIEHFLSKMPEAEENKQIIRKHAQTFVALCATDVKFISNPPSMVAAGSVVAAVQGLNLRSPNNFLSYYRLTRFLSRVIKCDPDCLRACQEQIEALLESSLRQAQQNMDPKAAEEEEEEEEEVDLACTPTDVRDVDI

| SMILES | IC50 (CDK2/CyclinE1; CDK2/CyclinE1, 100 μM ATP) | IC50 (T47D breast cancer cells) | IC50 (CDK6/CyclinD3; CDK6/CyclinD3, 300 μM ATP) | IC50 (CDK4/CyclinD1; CDK4/CyclinD1, 200 μM ATP) | IC50 [1] | IC50 (CDK2/CyclinE1; CDK2/CyclinE1) | IC50 (CDK6/CyclinD3; CDK6/CyclinD3) | IC50 (CDK4/CyclinD1; CDK4/CyclinD1) |
| --- | --- | --- | --- | --- | --- | --- | --- | --- |
| CNC1CCN(c2ccc(Nc3nccc(-c4ccn5ncc(C(C)C)c5c4)n3)nc2)C(=O)C1 (stereo not drawn) [Synthetic Example 204, 1-[6-[[4-(3-isopropylpyrazolo[1,5-a]pyridin-5-yl)pyrimidin-2-yl]amino]-3-pyridyl]-4-(methylamino)piperidin-2-one] | < 10 nM | < 100 nM | < 10 nM | < 10 nM | < 100 nM | – | – | – |
| Cc1nc2c(F)nc(-c3ccnc(Nc4ccc(N5CCCC(N(C)C)C5=O)cn4)n3)cc2n1C(C)C (stereo not drawn) [Synthetic Example 301, 3-(dimethylamino)-1-[6-[[4-(4-fluoro-1-isopropyl-2-methyl-imidazo[4,5-c]pyridin-6-yl)pyrimidin-2-yl]amino]-3-pyridyl]piperidin-2-one] | > 1000 nM | < 100 nM | < 10 nM | < 10 nM | < 100 nM | – | – | – |
| CC(C)c1cnn2ccc(-c3nc(Nc4ccc(N5CCC(N(C)C)CC5=O)cn4)ncc3F)cc12 (stereo not drawn) [compound 3] | 10 to 100 nM | < 100 nM | 10 to 100 nM | < 10 nM | < 100 nM | – | – | – |
| CC(C)c1cnn2ccc(-c3nc(Nc4ccc(N5CCOCC5=O)cc4F)ncc3F)cc12 [compound 7] | < 10 nM | 100 to 500 nM | 10 to 100 nM | < 10 nM | 100 to 500 nM | – | – | – |
| CC(C)c1cnn2ccc(-c3nc(Nc4ccc(N5CCOCC5=O)cc4)ncc3F)cc12 [compound 25] | < 10 nM | < 100 nM | 10 to 100 nM | < 10 nM | < 100 nM | – | – | – |
| CC(C)c1cnn2ccc(-c3nc(Nc4ccc(N5CCOCC5=O)c(F)c4)ncc3F)cc12 [compound 26] | < 10 nM | 100 to 500 nM | 10 to 100 nM | < 10 nM | < 100 nM | – | – | – |
| CC(C)c1cnn2ccc(-c3nc(Nc4ccc(S(N)(=O)=O)cc4)ncc3F)cc12 [compound 27] | < 10 nM | < 100 nM | 100 to 1000 nM | 10 to 100 nM | 100 to 500 nM | – | – | – |
| CC(C)c1cnn2ccc(-c3ccnc(Nc4ccc(N5CCOCC5=O)cn4)n3)cc12 [compound 28] | < 10 nM | < 100 nM | 10 to 100 nM | < 10 nM | < 100 nM | – | – | – |
| CC(C)c1cnn2ccc(-c3ccnc(Nc4ccc(N5CCCNCC5=O)cn4)n3)cc12 [compound 30] | 10 to 100 nM | 100 to 500 nM | 10 to 100 nM | < 10 nM | < 100 nM | – | – | – |
| CC(C)c1cnn2cc(-c3ccnc(Nc4ccc(N5CCNCCC5=O)cn4)n3)ccc12 [compound 31] | 10 to 100 nM | < 100 nM | 10 to 100 nM | < 10 nM | < 100 nM | – | – | – |
| CC(C)c1cnn2ccc(-c3nc(Nc4ccc(N5CCCNCC5=O)cn4)ncc3F)cc12 [compound 33] | 10 to 100 nM | < 100 nM | 10 to 100 nM | < 10 nM | < 100 nM | – | – | – |
| CC(C)c1cnn2ccc(-c3nc(Nc4ccc(N5CCNCCC5=O)cn4)ncc3F)cc12 [compound 34] | 10 to 100 nM | < 100 nM | 10 to 100 nM | < 10 nM | < 100 nM | – | – | – |
| CC(C)c1cnn2ccc(-c3ccnc(Nc4ccc(N5CCNCC5=O)cn4)n3)cc12 [compound 37] | < 10 nM | < 100 nM | 10 to 100 nM | < 10 nM | < 100 nM | – | – | – |
| CC(C)c1cnn2ccc(-c3ccnc(Nc4ccc(N5CCN(C6CCNCC6)CC5=O)cn4)n3)cc12 [compound 41] | 10 to 100 nM | < 100 nM | 10 to 100 nM | < 10 nM | < 100 nM | – | – | – |
| CC(C)c1cnn2ccc(-c3nc(Nc4ccc(N5CCN(C6CNC6)CCC5=O)cn4)ncc3F)cc12 [compound 42] | 10 to 100 nM | < 100 nM | 10 to 100 nM | < 10 nM | < 100 nM | – | – | – |
| CCN1CCC(Cn2ccc(Nc3ncc(F)c(-c4ccn5ncc(C(C)C)c5c4)n3)cc2=O)CC1 [compound 44] | 100 to 1000 nM | > 1000 nM | 10 to 100 nM | < 10 nM | 500 to 1000 nM | – | – | – |
| CCN1CCC(COc2cc(Nc3ncc(F)c(-c4ccn5ncc(C(C)C)c5c4)n3)ccn2)CC1 [compound 45] | < 10 nM | 100 to 500 nM | 10 to 100 nM | < 10 nM | 500 to 1000 nM | – | – | – |
| CC(C)c1cnn2ccc(-c3nc(Nc4ccc(N5CCN(C)CCC5=O)cn4)ncc3F)cc12 [compound 46] | 10 to 100 nM | < 100 nM | 10 to 100 nM | < 10 nM | < 100 nM | – | – | – |
| CCN1CCC(=O)N(c2ccc(Nc3ncc(F)c(-c4ccn5ncc(C(C)C)c5c4)n3)nc2)CC1 [compound 47] | 10 to 100 nM | < 100 nM | 10 to 100 nM | < 10 nM | < 100 nM | – | – | – |
| CCN1CCN(c2ccc(Nc3ncc(F)c(-c4ccn5ncc(C(C)C)c5c4)n3)nc2)C(=O)C1 [compound 48] | 10 to 100 nM | < 100 nM | 10 to 100 nM | < 10 nM | < 100 nM | – | – | – |
| CC(C)c1cnn2ccc(-c3nc(Nc4ccc(N5CCN(S(C)(=O)=O)CC5=O)cn4)ncc3F)cc12 [compound 51] | 10 to 100 nM | < 100 nM | 10 to 100 nM | < 10 nM | < 100 nM | – | – | – |
| CC(C)c1cnn2ccc(-c3nc(Nc4ccc(N5CCN(CC(F)(F)F)CC5=O)cn4)ncc3F)cc12 [compound 53] | 10 to 100 nM | 100 to 500 nM | 10 to 100 nM | < 10 nM | < 100 nM | – | – | – |
| CC(C)n1cnc2c(OC(F)F)nc(-c3ccnc(Nc4ccc(N5CCOCC5=O)cn4)n3)cc21 [compound 63] | – | 100 to 500 nM | – | – | < 100 nM | 100 to 1000 nM | 10 to 100 nM | < 10 nM |
| COc1nc(-c2ccnc(Nc3ccc(CN4CCC(C#N)CC4)cn3)n2)cc2c1ncn2C(C)C [compound 68] | – | 100 to 500 nM | – | – | < 100 nM | > 1000 nM | 10 to 100 nM | < 10 nM |
| COc1nc(-c2nc(Nc3ccc(N4CCC(N(C)C)CC4)cn3)ncc2F)cc2c1ncn2C(C)C [compound 70] | – | 100 to 500 nM | – | – | < 100 nM | > 1000 nM | 10 to 100 nM | < 10 nM |
| COc1nc(-c2nc(Nc3ccc(N4CCOCCC4=O)cn3)ncc2F)cc2c1nc(C)n2C(C)C [compound 73] | – | 500 to 1000 nM | – | – | < 100 nM | > 1000 nM | 10 to 100 nM | < 10 nM |
| COc1nc(-c2nc(Nc3ccc(N4CCCOCC4=O)cn3)ncc2F)cc2c1nc(C)n2C(C)C [compound 74] | – | 100 to 500 nM | – | – | 100 to 500 nM | > 1000 nM | 10 to 100 nM | < 10 nM |
| COc1nc(-c2ccnc(Nc3ccc(N4CCOCC4=O)cn3)n2)cc2c1nc(C)n2C(C)C [compound 77] | – | 100 to 500 nM | – | – | < 100 nM | 100 to 1000 nM | 10 to 100 nM | < 10 nM |
| COc1nc(-c2nc(Nc3ccc(N4CCOCC4=O)cn3)ncc2F)cc2c1ncn2C(C)C [compound 78] | – | < 100 nM | – | – | < 100 nM | 100 to 1000 nM | 10 to 100 nM | < 10 nM |
| COc1nc(-c2ccnc(Nc3ccc(C(=O)N4CCC(NC5CC5)C4)cc3)n2)cc2c1ncn2C(C)C (stereo not drawn) [compound 80] | – | 100 to 500 nM | – | – | < 100 nM | < 10 nM | 10 to 100 nM | < 10 nM |
